What was measured:
[1] = tested on: thrombus formations in the occluded vena cava; test: thrombolytic activity on already formed vena cava thrombus versus urokinase; format: in vivo, rat
Description: DS administered intravenously is active at a dose of 0.1 mg/kg in inhibiting 90% of a Jugular vein thrombosis induced by Protein Complex Concentrate (PCC) in the rabbit, and in inhibiting 70% of a thrombosis induced by a PCC/RVV (Russel Viper Venom) combination; (Fareed J. et al.; Sem. Thromb. Haemost. 11, 155-157 (1985)).
With dermatan sulphate fractions similar to the one coded 1.25M as obtained in Example 1b) comparative studies were made on thrombolytic activity versus urokinase. Four groups of 10 rats each were anaesthetised with 1 g/kg of urethane administered in endoperitoneal physiological solution by endoperitoneal route. The vena cava of the rats was subjected to ligature in line with the Reyers test (Thromb. Res. 18, 699, 1980), and two hours after the ligature 5 mg/kg/i.v. of DS and 5000 U/kg of Ukidan (Urokinase-Serono) were administered. After eight hours the thrombus formations in the occluded vein were removed.

bleeding time = conditions: in vivo

Row | effect on bleeding time (bleeding time) | Substance | reduction in thrombus weight ([1]; bolus then 6 hours infusion: DS 2.5 mg/kg + 1.25 mg/kg/hour, urokinase 2500 U/kg + 1250 U/kg/hour, relative to untreated controls) | mean thrombus weight ([1]; treated two hours after ligature, 5 mg/kg i.v. DS or 5000 U/kg Ukidan, thrombus removed eight hours after ligature)
1 | – | Urokinase | 70.2% | 2.2 mg
2 | very little effect | dermatan sulphate [DS] | – | –

Source: patent US5547944A, “Dermatan sulphate possessing a thrombolytic activity, and pharmaceutical forms containing it” (Opocrin S.p.A., priority 1991, dated 1996)
